PMC6273012, “New Iridoid Glucosides from Caryopteris incana (Thunb.) Miq. and Their α-Glucosidase Inhibitory Activities” (Molecules, 2016)
“Also recorded” adds a separate entry of the source.

Biological target: α-glucosidase from Saccharomyces cerevisiae (Saccharomyces cerevisiae, UniProt P53341)
Experiment: α-glucosidase inhibition assay (pNPG substrate)
Assay type: biochemical
Settings: yeast α-glucosidase; acarbose as positive control
Protocol: The α-glucosidase inhibition assay was performed according to a slightly modified, previously reported method; α-Glucosidase (0.1 U/mL) was dissolved in potassium phosphate buffer (pH 6.8) as the enzyme solution. The tested compounds (50 μL, 5 mM) dissolved in potassium phosphate buffer containing 3% DMSO were mixed with 50 μL of enzyme solution. After incubation at 37 °C for 10 min, a p-nitrophenyl-α-glucopyranoside (pNPG) solution (100 μL) (5.0 mM pNPG in 0.1 M potassium phosphate buffer (pH 6.8)) was added. The enzymatic reaction proceeded at 37 °C for 20 min and was terminated by the addition of 100 μL of 0.2 M Na2CO3. 4-nitrophenol absorption was immediately measured at 405 nm by using a microplate reader. The experiments were performed in triplicate.

α-glucosidase from Saccharomyces cerevisiae, sequence (P53341 whole entry): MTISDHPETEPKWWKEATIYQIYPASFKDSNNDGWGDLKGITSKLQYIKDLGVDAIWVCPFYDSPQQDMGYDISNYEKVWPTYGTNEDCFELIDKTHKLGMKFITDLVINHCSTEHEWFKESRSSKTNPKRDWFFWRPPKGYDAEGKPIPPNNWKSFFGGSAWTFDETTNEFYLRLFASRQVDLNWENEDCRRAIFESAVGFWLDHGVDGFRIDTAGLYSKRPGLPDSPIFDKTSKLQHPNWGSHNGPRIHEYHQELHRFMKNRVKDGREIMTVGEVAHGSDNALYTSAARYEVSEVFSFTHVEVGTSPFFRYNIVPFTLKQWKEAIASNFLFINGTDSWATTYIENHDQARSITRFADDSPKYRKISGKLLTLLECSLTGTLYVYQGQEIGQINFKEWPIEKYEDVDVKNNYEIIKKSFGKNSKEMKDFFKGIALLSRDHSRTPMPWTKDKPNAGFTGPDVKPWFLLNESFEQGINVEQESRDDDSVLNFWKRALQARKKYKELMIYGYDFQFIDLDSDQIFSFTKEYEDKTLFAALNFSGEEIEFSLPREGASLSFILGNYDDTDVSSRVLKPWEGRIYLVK

Row | Compound | α-glucosidase inhibitory effect (in words)
1 | CC(=O)O[C@@]1(C)C[C@@H](OC(=O)C2=CO[C@@H](O[C@@H]3O[C@H](CO)[C@@H](O)[C@H](O)[C@H]3OC(=O)/C=C\c3ccc(O)cc3)[C@@H]3[C@H](C)CC[C@H]23)[C@@H]2C=CO[C@@H](O[C@@H]3O[C@H](CO)[C@@H](O)[C@H](O)[C@H]3O)[C@@H]21 [Compound 4, 2′′′-O-(Z)-p-coumaroyl caryocanoside B] | stronger inhibitory effects against α-glucosidase than the positive control; also recorded: potent effect
2 | CC(CO)c1cc2c(c(O)c1O[C@@H]1O[C@H](CO)[C@@H](O)[C@H](O)[C@H]1O)[C@@]1(C)CCC[C@](C)(CO[C@@H]3O[C@H](CO)[C@@H](O)[C@H](O)[C@H]3O)[C@@H]1CC2 (some centres unmarked) [Compound 10, ajugaside A] | stronger inhibitory effects against α-glucosidase than the positive control
